Test results reported in ChEMBL document CHEMBL1134042, “[Lys3]Didemnins as potential affinity ligands” (Bioorg Med Chem Lett, 2001).

Columns and labels:
[1] = Total growth inhibition of NCI-60 human tumor cells by the compound was evaluated; type: functional
[2] = Cell free protein biosynthesis inhibition activity was determined; type: functional, Homo sapiens
[3] = Cytotoxicity in NCI-60 human tumor cells; type: functional; conditions: read-out: LC50 (the source's name)
[4] = Antiproliferative activity as 50% growth inhibition of NCI-60 human tumor cells; type: functional

For `CC[C@H](C)[C@H]1NC(=O)[C@@H](NC(=O)[C@@H](CC(C)C)N(C)C(=O)[C@@H]2CCCN2C(=O)C(C)O)[C@@H](C)OC(=O)[C@H](Cc2ccc(OC)cc2)N(C)C(=O)[C@@H]2CCCN2C(=O)[C@H](CCCCN)NC(=O)[C@@H](C)C(=O)[C@H](C(C)C)OC(=O)C[C@@H]1O` (some centres undefined), the TGI [1] was 22 µM, the IC50 [2] was 154 µM and the CC50 [3] was 25 µM. For the same molecule, the GI50 [4] was 6.4 µM.
